Source: patent US7495027B2, “3-aryl-4-hydroxyfuranone compounds and the human and animal health use thereof” (Wyeth, priority 2003, dated 2009)
≈ marks a conversion by molar mass, not a printed value. Where two headings read alike, the source gives them in different places.

Assays:
[1] = target: T1, S. aureus Uridine-diphosphate-N-acetvimuramoyl: L-alanine lipase, MurC (Staphylococcus aureus, UniProt Q2FXJ0); assay: biochemical; details: (S) S. aureus enzyme; for IC50: read-out: MurC IC50 (converted)
T1 sequence (Q2FXJ0 1-437): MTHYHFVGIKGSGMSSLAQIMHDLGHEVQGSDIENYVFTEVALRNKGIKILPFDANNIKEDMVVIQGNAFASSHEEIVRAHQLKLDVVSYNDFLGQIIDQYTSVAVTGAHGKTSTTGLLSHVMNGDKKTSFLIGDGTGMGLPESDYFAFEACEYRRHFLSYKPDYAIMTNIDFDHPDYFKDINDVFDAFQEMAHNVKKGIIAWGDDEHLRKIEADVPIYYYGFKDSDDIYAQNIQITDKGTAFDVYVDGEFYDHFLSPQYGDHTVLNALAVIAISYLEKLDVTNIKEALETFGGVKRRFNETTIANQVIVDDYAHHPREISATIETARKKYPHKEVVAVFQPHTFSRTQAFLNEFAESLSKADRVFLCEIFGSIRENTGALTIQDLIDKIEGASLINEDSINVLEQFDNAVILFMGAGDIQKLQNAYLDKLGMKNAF
Outline: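 MurC assay: enzyme (E. coli 100 μg/mL, S. aureus 70 μg/mL stock) with L-Ala and test compound, pre-incubated 10 min at 23 °C, then UDP-MurNac added, 10 min at 37 °C. Phosphate released detected by malachite green–molybdate at 660 nm; IC50 by linear regression.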

[2] = system: staphylococci; assay: Minimum inhibitory concentration, microdilution broth method, staphylococci; format: cell-based; details: Mueller-Hinton broth, 18-22 hours at 35° C.; for MIC: Staphylococcus aureus
Outline: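 Recent clinical isolates, some resistant to methicillin, penicillin and/or vancomycin, were tested by the broth microdilution method of NCCLS Approved Standard M7-A5 2000. Mueller-Hinton broth served for staphylococci and enterococci, while streptococci received the same broth supplemented with 5% horse blood.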

[3] = target: E. coli Enopyruvyl-UPD-N-acetylglucosamine reductase, Mur B (Escherichia coli, UniProt P08373); assay: biochemical; details: (E) E. coli enzyme; for IC50: read-out: MurB IC50 (converted)
[4] = target: T2, S. aureus Uridine-diphosphate-N-acetylmuramoyl-L-alanine: D-glutamate liease, MurD (Staphylococcus aureus, UniProt Q2FZ92); assay: biochemical; details: (S) S. aureus enzyme
T2 sequence (Q2FZ92 1-449): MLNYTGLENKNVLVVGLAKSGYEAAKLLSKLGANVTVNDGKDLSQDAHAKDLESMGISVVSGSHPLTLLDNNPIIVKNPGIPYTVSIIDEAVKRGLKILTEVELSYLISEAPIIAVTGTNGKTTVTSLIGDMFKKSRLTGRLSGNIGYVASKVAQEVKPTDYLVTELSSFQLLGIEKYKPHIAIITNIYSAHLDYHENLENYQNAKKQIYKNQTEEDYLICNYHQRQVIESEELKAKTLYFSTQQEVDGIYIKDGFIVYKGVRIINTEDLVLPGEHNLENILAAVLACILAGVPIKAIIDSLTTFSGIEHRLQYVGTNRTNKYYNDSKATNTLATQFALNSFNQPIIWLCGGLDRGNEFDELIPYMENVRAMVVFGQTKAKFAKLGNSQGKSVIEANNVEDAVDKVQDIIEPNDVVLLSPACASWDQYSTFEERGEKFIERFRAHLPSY
Outline: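 MurD, which catalyses the fourth step of cell wall biosynthesis, was tested for inhibition by compounds. Compounds were made up as 10 mg/mL DMSO stocks and diluted to 100 μg/mL in 50 mM Tris/HCl, pH 8.5.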

[5] = S. aureus GC 1131, read-out: MIC S. aureus GC 1131
[6] = S. aureus GC 4543, read-out: MIC S. aureus GC 4543

Sequence of E. coli Enopyruvyl-UPD-N-acetylglucosamine reductase, Mur B (P08373 whole entry): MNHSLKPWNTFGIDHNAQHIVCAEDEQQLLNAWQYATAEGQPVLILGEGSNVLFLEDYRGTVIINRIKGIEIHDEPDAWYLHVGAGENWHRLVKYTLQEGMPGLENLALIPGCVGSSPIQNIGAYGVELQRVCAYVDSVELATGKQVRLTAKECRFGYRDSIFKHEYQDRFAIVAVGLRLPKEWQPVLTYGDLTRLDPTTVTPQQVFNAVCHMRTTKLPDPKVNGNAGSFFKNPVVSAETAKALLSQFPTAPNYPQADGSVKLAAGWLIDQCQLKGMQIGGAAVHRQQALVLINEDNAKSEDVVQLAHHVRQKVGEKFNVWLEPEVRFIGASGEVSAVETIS

Question: With O=C1O/C(=C\c2ccc(Cl)cc2)C(O)=C1c1ccc(-c2ccccc2)c(F)c1 [Example 138] as the compound, how does the IC50 [1] read?
Answer: The IC50 was 20.4 µM.

Question: And the MIC [2, 5]?
Answer: Its MIC is 4 µg/mL (≈ 10.2 µM).

Question: And the MIC [2, 6]?
Answer: Its MIC is 4 µg/mL (≈ 10.2 µM).

Question: And the IC50 [3]?
Answer: The IC50 was 56 µM.

Question: What about the IC50 [4] of the same compound?
Answer: Its IC50 is 35.6 µM.

Question: What does the source list for COc1cc(/C=C2\OC(=O)C(c3cccc(Cl)c3)=C2O)ccc1-c1ccccc1C(F)(F)F [Example 32]?
Answer: IC50 [1]: 25.4 µM; MIC [2, 5]: 2 µg/mL (≈ 4.23 µM); MIC [2, 6]: 2 µg/mL (≈ 4.23 µM); IC50 [3]: 12.7 µM; IC50 [4]: 19 µM

Question: Which “MurC IC50” value [1] does the source give for O=C1O/C(=C\c2cc(C(F)(F)F)ccc2Cl)C(O)=C1c1ccc(N2CCOCC2)c(F)c1 [Example 142] here?
Answer: The value was >25 (S) μg/mL.

Question: And the “MIC S. aureus GC 1131” value ([2]; S. aureus GC 1131)?
Answer: Its value is 64 µg/mL (≈ 136 µM).

Question: And the “MIC S. aureus GC 4543” value ([2]; S. aureus GC 4543)?
Answer: Its value is >128 µg/mL.

Question: And the “MurB IC50” value [3]?
Answer: The value was 10 µg/mL.

Question: What about the “MurD IC50” value [4] of the same compound?
Answer: The value was >25 (S) μg/mL.

Question: Which results are given for O=C1O/C(=C\c2ccc(-c3ccccc3)cc2)C(O)=C1c1cc(Cl)cc(Cl)c1 [Example 67]?
Answer: IC50 [1]: 44 µM; MIC S. aureus GC 4543 ([2]; S. aureus GC 4543): 0.5 µg/mL (≈ 1.22 µM); MIC [2, 5]: 1 µg/mL (≈ 2.44 µM); IC50 [3]: 2.44 µM; IC50 [4]: 19.5 µM

Question: Which IC50 [1] does the source give for O=C1O/C(=C\c2ccc(-c3ccccc3)cc2)C(O)=C1c1csc2ccccc12 [Example 143] here?
Answer: The IC50 was 12.6 µM.

Question: And the MIC [2, 5]?
Answer: Its MIC is 8 µg/mL (≈ 20.2 µM).

Question: And the MIC [2, 6]?
Answer: Its MIC is 8 µg/mL (≈ 20.2 µM).

Question: And the IC50 [3]?
Answer: Its IC50 is 17.7 µM.

Question: What about the IC50 [4] of the same compound?
Answer: Its IC50 is 25.2 µM.

Question: CN(C)c1ccc(/C=C2\OC(=O)C(c3cc(Cl)cc(Cl)c3)=C2O)c2ccccc12 [Example 79] was tested. Which IC50 [1] did it give?
Answer: Its IC50 is 56.3 µM.

Question: What about the MIC [2, 5] of the same compound?
Answer: Its MIC is 2 µg/mL (≈ 4.69 µM).

Question: What about the MIC [2, 6] of the same compound?
Answer: Its MIC is 1 µg/mL (≈ 2.35 µM).

Question: And the IC50 [3]?
Answer: The IC50 was 14.1 µM.

Question: What about the IC50 [4] of the same compound?
Answer: Its IC50 is 32.8 µM.

Question: Which IC50 [1] does the source give for O=C1O/C(=C\c2ccc(-c3ccccc3)cc2)C(O)=C1c1cccc(Cl)c1 [Example 69] here?
Answer: Its IC50 is 13.3 µM.

Question: What about the MIC [2, 5] of the same compound?
Answer: Its MIC is 2 µg/mL (≈ 5.34 µM).

Question: And the MIC [2, 6]?
Answer: The MIC was 1 µg/mL (≈ 2.67 µM).

Question: What about the IC50 [3] of the same compound?
Answer: The IC50 was 13.3 µM.

Question: And the IC50 [4]?
Answer: The IC50 was 18.7 µM.

Question: With COc1cc(/C=C2\OC(=O)C(c3cc(Cl)cc(Cl)c3)=C2O)ccc1-c1ccccc1Cl [Example 21] as the compound, how does the IC50 [1] read?
Answer: Its IC50 is 42.2 µM.

Question: And the MIC [2, 5]?
Answer: Its MIC is 1 µg/mL (≈ 2.11 µM).

Question: And the MIC [2, 6]?
Answer: The MIC was 0.5 µg/mL (≈ 1.06 µM).

Question: What about the IC50 [3] of the same compound?
Answer: The IC50 was 10.6 µM.

Question: And the IC50 [4]?
Answer: Its IC50 is 16.9 µM.

Question: How did the IC50 [1] turn out when O=C1O/C(=C\C2CCCCC2)C(O)=C1c1ccc2ccccc2c1 [Example 51] was run?
Answer: Its IC50 is 62.4 µM.

Question: And the MIC [2, 5]?
Answer: The MIC was > 128 µg/mL.

Question: And the MIC [2, 6]?
Answer: Its MIC is 16 µg/mL (≈ 49.9 µM).

Question: What about the IC50 [3] of the same compound?
Answer: The IC50 was > 78 µM.

Question: What about the IC50 [4] of the same compound?
Answer: The IC50 was > 78 µM.
